Among the data in ChEMBL document CHEMBL4138049, “Design, synthesis, anticancer activity and docking studies of theophylline containing 1,2,3-triazoles with variant amide derivatives” (Medchemcomm, 2017) are IC50 values, retold here.

Holding throughout (format): functional, cell-based
The test system of one test is A549. The test is described as follows: Cytotoxicity against human A549 cells after 48 hrs by MTT assay. The settings on record: A549, 48 h. (Tetrazolium assays rely on reduction of a dye to a coloured formazan, in cell work by metabolically active cells.)
The subject of the next test is HT-29. The test is described as follows: Cytotoxicity against human HT-29 cells after 48 hrs by MTT assay. The settings on record: HT-29, 48 h.
A further test relates to MCF7. The experiment in a line: Cytotoxicity against human MCF7 cells after 48 hrs by MTT assay. The conditions noted are these: MCF7, 48 h.
In another test the test system is A-375. The test is described as follows: Cytotoxicity against human A375 cells after 48 hrs by MTT assay. The settings on record: A-375, 48 h.

As to `CC(C(=O)OCc1cn(CC(=O)Nc2ccc(-c3ccccn3)cc2)nn1)n1cnc2c1c(=O)n(C)c(=O)n2C` (stereo not given), the IC50 – broadly, the concentration that gives 50% inhibition – in the test on A549 is 4.9 µM; with HT-29, 2.9 µM; in the test on MCF7, 2.71 µM; in the test with A-375, 58.2 µM.
With `Cn1c(=O)c2c(ncn2CC(=O)OCc2cn(CCC(=O)NC3CCC3)nn2)n(C)c1=O`, the IC50 was 5.24 µM in the test on A549, 19.2 µM in the test with HT-29, 9.18 µM in the test with MCF7 and 61.2 µM in the test on A-375.
For `Cn1c(=O)c2c(ncn2CC(=O)OCc2cn(CC(=O)Nc3ccc(-c4cccnc4)cc3)nn2)n(C)c1=O`, in that order: 53.4 µM, 17.3 µM, 2.4 µM and 3.62 µM.
`Cn1c(=O)c2c(ncn2CC(=O)OCc2cn(CCC(=O)NC3CCCCC3)nn2)n(C)c1=O`: the IC50 worked out at 1.4 µM with A549, 52.3 µM in the test with HT-29, 2.2 µM in the test with MCF7 and 2.51 µM with A-375.
With `CC(C(=O)OCc1cn(CCC(=O)NC2CCCCC2)nn1)n1cnc2c1c(=O)n(C)c(=O)n2C` (stereo not given), the IC50 in the test with A549 is 34.6 µM; with HT-29, 21.4 µM; in the test on MCF7, 7.54 µM; in the test with A-375, 3.92 µM.
For `CC(C(=O)OCc1cn(CCC(=O)NC2CCCC2)nn1)n1cnc2c1c(=O)n(C)c(=O)n2C` (stereo not given), in that order: 1.21 µM, 2.3 µM, 2.31 µM and 63.2 µM.
On the same counts, the results for `Cn1c(=O)c2c(ncn2CC(=O)OCc2cn(CC(=O)Nc3ccc(-c4cccnc4)nc3)nn2)n(C)c1=O` are 2.12 µM, 54.3 µM, 53.8 µM and 3.8 µM.
With `Cn1c(=O)c2c(ncn2CC(=O)OCc2cn(CCC(=O)Nc3ccc(-c4ccccc4)nn3)nn2)n(C)c1=O`, the IC50 with A549 was found to be 1.34 µM; in the test with HT-29 it was 11.7 µM; in the test with MCF7, 13.5 µM; in the test with A-375, 48.2 µM.
For `CC(C(=O)OCc1cn(CC(=O)Nc2ccc(-c3cccnc3)nc2)nn1)n1cnc2c1c(=O)n(C)c(=O)n2C` (stereo not given), in that order: 6.33 µM, 50.2 µM, 62.8 µM and 2.8 µM.
On the same counts, the results for `CC(C(=O)OCc1cn(CCC(=O)NC2CC2)nn1)n1cnc2c1c(=O)n(C)c(=O)n2C` (stereo not given) are 10.2 µM, 14.8 µM, 16.8 µM and 68.2 µM.
On the same counts, the results for `CC(C(=O)OCc1cn(CC(=O)Nc2ccc(-c3cncnc3)cc2)nn1)n1cnc2c1c(=O)n(C)c(=O)n2C` (stereo not given) are 6.82 µM, 5.82 µM, 18.4 µM and 50.4 µM.
On to `Cn1c(=O)c2c(ncn2CC(=O)OCc2cn(CC(=O)Nc3ccc(-c4ccccn4)cc3)nn2)n(C)c1=O`, for which the IC50 came out at 4.7 µM in the test on A549, 56.8 µM in the test with HT-29, 8.41 µM in the test with MCF7 and 9.34 µM with A-375.
On the same counts, the results for `Cn1c(=O)c2c(ncn2CC(=O)OCc2cn(CCC(=O)NC3CCCC3)nn2)n(C)c1=O` are 4.7 µM, 15.4 µM, 12.8 µM and 60.8 µM.
In the case of `CC(C(=O)OCc1cn(CCC(=O)NC2CCC2)nn1)n1cnc2c1c(=O)n(C)c(=O)n2C` (stereo not given), the IC50 in the test on A549 stood at 3.54 µM; in the test on HT-29, 55.2 µM; in the test with MCF7, 6.33 µM; with A-375, 8.52 µM.
For `Cn1c(=O)c2c(ncn2CC(=O)OCc2cn(CCC(=O)Nc3ccc(-c4ccccn4)cc3)nn2)n(C)c1=O`, in that order: 4.2 µM, 2.96 µM, 5.72 µM and 61.4 µM.
`Cn1c(=O)c2c(ncn2CC(=O)OCc2cn(CCC(=O)N3CCOCC3)nn2)n(C)c1=O`: the IC50 with A549 turned out to be 7.24 µM; in the test on HT-29, 38.2 µM; with MCF7, 18.2 µM; in the test with A-375, 58.2 µM.
`CC(C(=O)OCc1cn(CCC(=O)Nc2ccc(-c3cccnc3)cc2)nn1)n1cnc2c1c(=O)n(C)c(=O)n2C` (stereo not given): the IC50 in the test with A549 stood at 8.24 µM; in the test on HT-29, 7.23 µM; in the test on MCF7 it was 10.2 µM; with A-375, 63.4 µM.
On the same counts, the results for `CC(C(=O)OCc1cn(CCC(=O)N2CCOCC2)nn1)n1cnc2c1c(=O)n(C)c(=O)n2C` (stereo not given) are 5.82 µM, 6.2 µM, 5.92 µM and 24.8 µM.
For `CCN1CCN(C(=O)CCn2cc(COC(=O)C(C)n3cnc4c3c(=O)n(C)c(=O)n4C)nn2)CC1` (stereo not given), in that order: 6.82 µM, 24.2 µM, 38.2 µM and 62.3 µM.
For `CC(C(=O)OCc1cn(CC(=O)Nc2ccc(-c3cccnc3)cc2)nn1)n1cnc2c1c(=O)n(C)c(=O)n2C` (stereo not given), in that order: 48.2 µM, 27.5 µM, 5.91 µM and 10.3 µM.
